According to PMC8920929 (The Journal of Biological Chemistry, 2022):

Target: T1, TRPV3-R509A (Homo sapiens, UniProt Q8NET8, R509A)
T1 sequence (Q8NET8 1-790 R509A): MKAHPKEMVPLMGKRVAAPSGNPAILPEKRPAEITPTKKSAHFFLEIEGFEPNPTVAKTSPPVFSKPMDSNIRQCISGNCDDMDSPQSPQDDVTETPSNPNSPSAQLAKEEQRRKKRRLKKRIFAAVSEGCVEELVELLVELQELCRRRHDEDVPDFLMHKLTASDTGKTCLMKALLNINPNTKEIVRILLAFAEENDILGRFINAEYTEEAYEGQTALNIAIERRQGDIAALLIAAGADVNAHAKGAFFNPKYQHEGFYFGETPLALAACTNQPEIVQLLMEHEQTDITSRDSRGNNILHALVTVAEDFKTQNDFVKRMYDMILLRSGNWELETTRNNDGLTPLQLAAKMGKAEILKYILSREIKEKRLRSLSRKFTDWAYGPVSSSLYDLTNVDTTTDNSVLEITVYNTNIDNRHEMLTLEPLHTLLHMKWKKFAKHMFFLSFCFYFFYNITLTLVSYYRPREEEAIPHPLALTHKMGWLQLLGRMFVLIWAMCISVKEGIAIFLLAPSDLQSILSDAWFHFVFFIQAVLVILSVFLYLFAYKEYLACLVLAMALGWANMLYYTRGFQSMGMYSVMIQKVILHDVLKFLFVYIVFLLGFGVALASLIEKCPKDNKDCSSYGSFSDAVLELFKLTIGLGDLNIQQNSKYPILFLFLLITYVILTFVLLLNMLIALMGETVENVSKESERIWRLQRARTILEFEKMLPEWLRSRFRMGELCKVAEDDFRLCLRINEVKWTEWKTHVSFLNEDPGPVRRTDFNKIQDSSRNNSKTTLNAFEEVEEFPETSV
Assay: Whole-cell and single-channel recordings of the TRPV3-R509A mutant
Type: cell-based

Cc1ccc(C(C)C)cc1O [carvacrol, 5-Isopropyl-2-methylphenol] was tested, and the EC50 was 2930 ± 110 µM, the “right shift of channel activation versus WT TRPV3” value (R509A versus WT) was “over 10 fold” and the “sensitivity of TRPV3 R509A mutant channel” value (macroscopic and single-channel current levels) was “decreased the channel sensitivity”.
